Assay results reported in the supplement of paper PMC10307832.

Key:
Assay in all cases: relative viability (nuclei count vs DMSO), 5 days (fraction); higher = more cells survive
[1] = compound: CC1=CC(=CC=C1)NC2=NC(=CS2)C3=CC=NC=C3
Method in brief: (§1)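 Viability was defined as treated-well nuclei divided by vehicle-well nuclei, with the median taken over replicate plates. Cells from lung cancer lines sat overnight at 37 °C in 1536-well plates, received five √10-spaced library-drug doses by pinning on vehicle-anchored plates, and grew 5 days without medium change before one-step fixation, permeabilisation and Hoechst staining, 4× imaging and MetaXpress nuclear counts. Only plates with control CV under 25% and at least one doubling were kept.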

Masitinib = compound: Cc1ccc(NC(=O)c2ccc(CN3CCN(C)CC3)cc2)cc1Nc1nc(-c2cccnc2)cs1 [Masitinib]
Method in brief: as §1

Masitinib + Pemetrexed = compound: Cc1ccc(NC(=O)c2ccc(CN3CCN(C)CC3)cc2)cc1Nc1nc(-c2cccnc2)cs1 [Masitinib] + Nc1nc2[nH]cc(CCc3ccc(C(=O)N[C@@H](CCC(=O)O)C(=O)O)cc3)c2c(=O)[nH]1 [Pemetrexed] (partner 0.2 µM)
Method in brief: (§2)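 Relative viability divides the nuclei count in treated wells by that in vehicle wells. Lung cancer cell lines were seeded in 1536-well plates, dosed by pin tool the next day, and fixed and stained after 5 days in one step with final 0.05% Triton X-100, 1% formaldehyde and 1 ug/ml Hoechst. Dosing was a single drug or a fixed anchor-drug dose plus five library-drug doses (not always all listed) in √10 steps, and values are medians of duplicate plates imaged at 4×.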

[2] = compound: CC1=CC(=CC=C1)NC2=NC(=CS2)C3=CC=NC=C3 + Cc1nc(NC(=O)N2CCC[C@H]2C(N)=O)sc1-c1ccnc(C(C)(C)C(F)(F)F)c1 [Alpelisib] (partner 2 µM)
Method in brief: as §2

Row | Cell Line | relative viability ([1]; 0.08 µM) | relative viability ([1]; 0.253 µM) | relative viability ([1]; 0.8 µM) | relative viability ([1]; 2.53 µM) | relative viability ([1]; 8 µM) | relative viability (Masitinib; 0.01 µM) | relative viability (Masitinib; 0.03162 µM) | relative viability (Masitinib; 0.1 µM) | relative viability (Masitinib; 0.3162 µM) | relative viability (Masitinib; 1 µM) | relative viability (Masitinib + Pemetrexed; first compound 0.01 µM) | relative viability (Masitinib + Pemetrexed; first compound 0.03162 µM) | relative viability (Masitinib + Pemetrexed; first compound 0.1 µM) | relative viability (Masitinib + Pemetrexed; first compound 0.3162 µM) | relative viability (Masitinib + Pemetrexed; first compound 1 µM) | relative viability ([2]; first compound 0.08 µM) | relative viability ([2]; first compound 0.253 µM) | relative viability ([2]; first compound 0.8 µM) | relative viability ([2]; first compound 2.53 µM) | relative viability ([2]; first compound 8 µM)
1 | 201T | 0.939 | 0.959 | 0.959 | 0.74 | 0.712 | 0.79 | 1.03 | 0.825 | 0.783 | 0.976 | 0.309 | 0.343 | 0.319 | 0.347 | 0.345 | 1 | 1.05 | 1.04 | 0.96 | 0.853
2 | A549 | 0.888 | 0.871 | 0.943 | 0.929 | 0.921 | 0.906 | 0.953 | 1.09 | 1.03 | 0.856 |  |  |  |  |  | 0.778 | 0.693 | 0.913 | 0.758 | 0.673
3 | A-427 | 0.864 | 0.951 | 0.968 | 0.859 | 0.878 |  | 0.951 | 0.69 | 1.08 | 0.931 | 0.758 | 0.986 | 0.857 | 1.03 | 0.771 | 1.03 | 1.06 | 1.1 |  | 0.844
4 | ABC-1 | 0.795 | 0.786 | 1.08 | 0.786 | 0.41 | 0.857 | 0.902 | 1.08 | 0.853 | 0.93 |  |  |  |  |  | 0.928 | 0.891 | 0.873 | 0.907 | 0.967
5 | BEN | 0.928 | 0.95 | 0.913 | 0.897 | 1.03 | 1.06 | 0.845 | 1.16 | 0.953 | 0.975 | 0.886 | 0.713 | 0.897 | 0.704 | 0.777 | 1.11 | 0.973 | 1.07 | 0.856 | 0.91
6 | CAL-12T | 0.867 | 0.928 | 1.06 | 0.854 | 0.911 | 0.922 | 0.953 | 0.99 | 0.97 | 0.967 | 1.11 | 1.15 | 1.29 | 1.4 | 1.28 | 1.22 | 1.13 | 1.33 | 1.07 | 1.22
7 | Calu-6 | 0.894 | 0.936 | 0.873 | 0.943 | 0.87 | 0.98 | 1.04 | 1.06 | 0.977 | 0.985 |  |  |  |  |  | 0.886 | 0.744 | 0.906 | 0.957 | 0.919
8 | ChaGo-K-1 | 0.997 | 1.01 | 0.973 | 1.03 | 0.814 | 1.17 | 0.988 | 1.12 | 1.1 | 0.984 | 0.251 | 0.274 | 0.258 | 0.248 | 0.251 |  |  |  |  | 
9 | EBC-1 | 0.788 | 0.882 | 0.865 | 0.823 | 0.685 | 0.988 | 0.946 | 1.2 | 0.984 | 0.834 |  |  |  |  |  | 0.644 | 0.744 | 0.773 | 0.809 | 0.712
10 | IA-LM | 0.856 | 0.772 | 0.9 | 0.76 | 0.677 | 0.885 | 0.901 | 1.01 | 0.977 | 0.982 |  |  |  |  |  | 0.706 |  | 0.815 | 0.533 | 0.673
11 | NCI-H522 | 0.894 | 0.886 | 0.931 | 0.925 | 1.15 | 1.06 | 0.815 | 0.866 | 1.07 | 0.974 | 1.13 | 0.935 | 0.95 | 0.841 | 0.997 |  |  |  |  | 
12 | NCI-H727 | 0.698 | 0.737 | 0.808 | 0.791 | 0.924 | 0.947 | 0.948 | 1.08 | 0.945 | 0.92 |  |  |  |  |  | 0.44 | 0.497 | 0.53 | 0.508 | 0.469
13 | NCI-H1299 | 0.981 | 0.997 | 0.968 | 1.02 | 0.937 | 1.06 | 1.01 | 1.05 | 1.04 | 0.984 |  |  |  |  |  | 1.04 | 1.01 | 1.05 | 1.05 | 0.988
14 | NCI-H1648 | 0.659 | 0.814 | 0.797 | 0.87 | 0.758 | 0.907 | 0.599 | 1.01 | 0.776 | 0.896 | 0.635 | 0.891 | 0.75 |  | 0.7 |  |  |  |  | 
15 | NCI-H1650 | 0.715 | 0.841 | 0.962 | 0.687 | 0.434 | 0.798 | 0.979 | 0.871 | 0.885 | 0.89 | 0.389 | 0.49 | 0.395 | 0.365 | 0.374 |  |  |  |  | 
16 | NCI-H1703 | 0.831 | 0.977 | 0.907 | 0.986 | 0.946 | 0.866 | 0.821 | 0.526 | 0.32 | 0.261 |  |  |  |  |  | 0.391 | 0.294 | 0.408 | 0.354 | 0.323
17 | NCI-H2342 | 0.96 | 0.929 | 0.95 | 0.93 | 0.881 | 1.03 | 0.866 | 1.07 | 0.889 | 0.843 | 0.741 | 0.72 | 0.831 | 0.746 | 0.781 |  |  |  |  | 
18 | SW 900 | 0.708 | 0.774 | 0.808 | 0.487 | 0.514 | 0.854 | 0.881 | 0.778 | 0.629 | 0.7 | 0.462 | 0.47 | 0.451 | 0.478 | 0.452 |  |  |  |  | 
